According to US11963962B2, “Platelet count-agnostic methods of treating myelofibrosis” (Sierra Oncology, Inc., priority 2018, dated 2024):
Marks after values point to notes of the source that are not given here.

Legend:
Assay type in all cases: in vivo, human
myelofibrosis [1] = experiment: SIMPLIFY-1 Phase 3 trial: splenic response rate (SRR); details: for SRR Responders / SRR proportion (Wilson 95% CI) / SRR Absolute risk difference (Newcombe 95% CI): SIMPLIFY 1, 24 weeks; for SRR Absolute risk difference (Newcombe 95% CI): MMB vs Control
Experimental: In the SIMPLIFY-1 trial (NCT01969838), the efficacy and safety of MMB versus ruxolitinib (RUX) was studied in patients with myelofibrosis who were naïve to treatment with a JAK inhibitor and a platelet count of ≥50×10^9/L. Patients (N=432) with high risk or intermediate-2 risk or symptomatic intermediate-1 risk myelofibrosis received 24 weeks of treatment with 200 mg MMB once daily or 20 mg RUX twice a day (or per label), after which all patients could receive open-label momelotinib. […] The primary endpoint was a reduction by at least 35% in the spleen volume at 24 weeks compared with baseline.
(§1) FIG. 8A: SIMPLIFY-1 study of MMB in a first line population previously untreated with JAKi. For SIMPLIFY-1, the goal was non-inferiority over ruxolitinib (RUX) (MMB: N=215 subjects, and RUX: N=217 subjects). FIG. 8B: SIMPLIFY-2 study of second line population of anemic or thrombocytopenic subjects previously treated with RUX (red blood cell (RBC) transfusions on RUX=64%. RUX dose adjustment for: thrombocytopenia=21%; anemia/hematoma=35%). For SIMPLIFY-2, the goal was superiority over best available treatment (BAT) (MMB: N=104 subjects, and BAT: N=52 subjects). In both SIMPLIFY-1 and SIMPLIFY: Primary endpoint: >=35% reduction in spleen volume at 24 weeks. Secondary endpoints: Total symptom score (TSS) response at 24 weeks. Effects on RBC transfusion requirements.
The SIMPLIFY 1 clinical trial data was reanalyzed for subgroups of subjects having particular baseline platelet counts in the MMB versus RUX arms of the study.
Patient data was analyzed according to the following baseline platelet count (PLT) subgroups and in particular according to the threshold PLT of 150×10^9/L: 1) PLT<50×10^9/L; 2) 50×10^9/L≤PLT<100×10^9/L; 3) 100×10^9/L≤PLT<150×10^9/L. The reanalyzed data is presented in Table 13 (SIMPLIFY 1). Selected data is also illustrated in the following figures.

myelofibrosis [2] = experiment: SIMPLIFY-1 dynamic and time-to-event analyses of RBC transfusions
Description: The SIMPLIFY-1 (S1) trial, a double-blind, active-controlled Phase 3 study in which 432 patients received randomized treatment with MMB or RUX for 24 weeks was previously reported (Mesa R A, Kiladjian J J, Catalano J V. et al. “Simplify-1: A phase III randomized trial of momelotinib versus ruxolitinib in j anus kinase inhibitor—naïve patients with myelofibrosis”, Journal of Clinical Oncology, 2017; 35:3844-50).
Since transfusion burden is of significant concern to clinicians and patients, to better understand the dynamics of RBC transfusions we further examined the S1 data through statistical models utilizing a variety of novel anemia benefit endpoints including time until transfusion and overall intensity of transfusions across time. The proportions of patients with 0 and 4 transfusions were calculated and time-to-event analyses examining time-to-first and time-to-fifth units transfused also conducted. Since transfusions typically comprise 2 units, the fifth unit transfused represents a de facto third transfusion event. The number of units transfused were also considered to be recurrent events and examined with and without patients' baseline characteristics as covariates. Finally, a mixture model, based on a zero-inflated negative binomial (ZINB) distribution fit to the transfusion data, was employed to compare between the treatment groups the proportions of subjects with zero transfusion burden and the mean transfusion rates.

myelofibrosis [3] = experiment: SIMPLIFY-2 Phase 3 trial: total symptom score (TSS) response; details: for TSS Responders / TSS proportion (Wilson 95% CI) / TSS Absolute risk difference (Newcombe 95% CI): SIMPLIFY 2; for TSS Absolute risk difference (Newcombe 95% CI): MMB vs Control
Description: In the SIMPLIFY-2 trial (NCT02101268), the efficacy and safety of MMB was studied in anemic or thrombocytopenic subjects with myelofibrosis who were previously treated with ruxolitinib (RUX). […] Specifically, anemic or thrombocytopenic myelofibrosis patients who had and were previously treated with (RUX) (for at least 28 days) were studied over 24 weeks for response to MMB versus best available treatment (BAT), primarily RUX (89% of patients) but alternatively no treatment or other standard interventions, after which period all patients could receive extended MMB treatment. Previously treated RUX patients who either required red blood cell transfusions or RUX dose reduction with grade 3 thrombocytopenia, anemia, and/or bleeding at grade 3 or worse, with palpable spleen of at least 5 cm and without grade 2 or greater peripheral neuropathy were included in the trial. There was no lower limit for the required baseline platelet count. The primary endpoint was a reduction by at least 35% in the spleen volume at 24 weeks compared with baseline.
as §1
The SIMPLIFY 2 clinical trial data was reanalyzed for subgroups of subjects having particular baseline platelet counts in the MMB versus BAT arms of the study.
Patient data was analyzed according to the following baseline platelet count (PLT) subgroups and in particular according to a threshold PLT of 150×10^9/L: 1) PLT<50×10^9/L; 2) 50×10^9/L≤PLT<100×10^9/L; 3) 100×10^9/L≤PLT<150×10^9/L. The reanalyzed data is presented in Table 14 (SIMPLIFY 2).

myelofibrosis [4] = experiment: Combined analysis of TI response in TD patients from SIMPLIFY-1, SIMPLIFY-2 and '1672; details: combined TD patients from SIMPLIFY-1, SIMPLIFY-2 and '1672 (n=152)
Description: This aggregate data is representative of a continuum of Intermediate/High Risk MF patients.

[5] = SIMPLIFY-1, 24 week randomized treatment period

Cl.N#CCNC(=O)c1ccc(-c2ccnc(Nc3ccc(N4CCOCC4)cc3)n2)cc1 [MMB, N-(cyanomethyl)-4-(2-(4-morpholinophenylamino)pyrimidin-4-yl)benzamide]
SRR Responders (myelofibrosis [1]; 50 ≤ PLT < 100 ×10^9/L): 7
SRR proportion (Wilson 95% CI) (myelofibrosis [1]; 50 ≤ PLT < 100 ×10^9/L): 0.39
SRR Absolute risk difference (Newcombe 95% CI) (myelofibrosis [1]; 50 ≤ PLT < 100 ×10^9/L): 0.39
SRR Responders (myelofibrosis [1]; 100 ≤ PLT < 150 ×10^9/L): 4
SRR proportion (Wilson 95% CI) (myelofibrosis [1]; 100 ≤ PLT < 150 ×10^9/L): 0.14
SRR Absolute risk difference (Newcombe 95% CI) (myelofibrosis [1]; 100 ≤ PLT < 150 ×10^9/L): 0.08
SRR Responders (myelofibrosis [1]; ITT): 57
SRR proportion (Wilson 95% CI) (myelofibrosis [1]; ITT): 0.27
SRR Absolute risk difference (Newcombe 95% CI) (myelofibrosis [1]; ITT): −0.03
subjects who did not achieve a spleen response on ruxolitinib but did so after 24 weeks of additional momelotinib treatment (myelofibrosis [1]; SIMPLIFY 1, crossover arm): 16.5%
spleen response (SRR) at any time in the open label phase (myelofibrosis [1]; SIMPLIFY 1, momelotinib arm): 46.2%
SRR (myelofibrosis [1]; SIMPLIFY 1, overall): 26.5%
SRR (myelofibrosis [1]; SIMPLIFY 1, week 24, ITT, all patients): 27%
SRR (myelofibrosis [1]; SIMPLIFY 1, week 24, ITT, platelets 50-100 (subgroup 2)): 39%
SRR (myelofibrosis [1]; SIMPLIFY 1, week 24, ITT, platelets 100-150 (subgroup 3)): 14% ‡
SRR (myelofibrosis [1]; SIMPLIFY 1, week 24, baseline TSS ≥ 6, all patients): 25%
SRR (myelofibrosis [1]; SIMPLIFY 1, week 24, baseline TSS ≥ 6, platelets 50-100 (subgroup 2)): 43%
SRR (myelofibrosis [1]; SIMPLIFY 1, week 24, baseline TSS ≥ 6, platelets 100-150 (subgroup 3)): 14% ‡
SRR (myelofibrosis [1]; SIMPLIFY 1, week 24, baseline TSS ≥ 10, all patients): 24%
SRR (myelofibrosis [1]; SIMPLIFY 1, week 24, baseline TSS ≥ 10, platelets 50-100 (subgroup 2)): 42%
SRR (myelofibrosis [1]; SIMPLIFY 1, week 24, baseline TSS ≥ 10, platelets 100-150 (subgroup 3)): 13% ‡
spleen response compared with RUX (myelofibrosis [1]; SIMPLIFY 1, p=0.011): statistically non-inferior to RUX
Kaplan-Meier estimate of the proportion of patients who did not require any units transfused (myelofibrosis [2]; [5]): 73%
proportion of patients requiring 4 or fewer units (myelofibrosis [2]; [5]): 83%
factor of increase of the odds of having zero units transfused (myelofibrosis [2]; SIMPLIFY-1, first 24 weeks, ZINB covariate model, MMB vs RUX): 9.3
hazard ratio, units transfused as recurrent events (myelofibrosis [2]; SIMPLIFY-1, MMB vs RUX, models with and without baseline covariates): 0.522
TSS symptom response (myelofibrosis [3]; SIMPLIFY 2, second line patients): 26.2%
TSS Responders (myelofibrosis [3]; 50 ≤ PLT < 100 ×10^9/L): 9
TSS proportion (Wilson 95% CI) (myelofibrosis [3]; 50 ≤ PLT < 100 ×10^9/L): 0.27
TSS Absolute risk difference (Newcombe 95% CI) (myelofibrosis [3]; 50 ≤ PLT < 100 ×10^9/L): 0.27
TSS Responders (myelofibrosis [3]; 100 ≤ PLT < 150 ×10^9/L): 6
TSS proportion (Wilson 95% CI) (myelofibrosis [3]; 100 ≤ PLT < 150 ×10^9/L): 0.25
TSS Absolute risk difference (Newcombe 95% CI) (myelofibrosis [3]; 100 ≤ PLT < 150 ×10^9/L): 0.25
TSS Responders (myelofibrosis [3]; ITT): 27
TSS proportion (Wilson 95% CI) (myelofibrosis [3]; ITT): 0.26
TSS Absolute risk difference (Newcombe 95% CI) (myelofibrosis [3]; ITT): 0.20
TSS Responders (myelofibrosis [3]; PLT < 50 ×10^9/L): 1
TSS proportion (Wilson 95% CI) (myelofibrosis [3]; PLT < 50 ×10^9/L): 0.11
TSS Absolute risk difference (Newcombe 95% CI) (myelofibrosis [3]; PLT < 50 ×10^9/L): −0.03
≥8 week transfusion independence rate (myelofibrosis [4]): 48.7%
≥12 week transfusion independence rate (myelofibrosis [4]): 44.1%
